The text below walks through data of ChEMBL document CHEMBL1201862, “PubChem BioAssay data set” (2004).

Among the test systems are CAKI-1; OVCAR-5; LOX IMVI; MOLT-4; Malme-3M; A498; SK-MEL-28; MDA-MB-435; HT-29; NCI/ADR-RES; EKVX; HL-60; SNB-19; MCF7; TK-10; UO-31; T47D; OVCAR-3; NCI-H226; MDA-MB-231.
What all share (assay): growth of human tumour cells (NCI), 48 h

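Growth conditions: 96-well plates. Treatment: test compound, 48 hours, 5 concentrations. Analysis: linear interpolation between bracketing concentrations; unreached endpoints set to highest concentration. The concentration for 50% growth inhibition is given as GI50.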 The source made the active and inactive calls. Rule as the data show it: active = GI50 up to about 1.1 µM and inactive = higher. Where only a bound is given, the exact number is not on record here.

In the case of `CCN(CC)COC(=S)S`, the GI50 was > 67 µM (inactive) with CAKI-1; > 100 µM (inactive) in the assay on OVCAR-5; 41.8 µM (inactive) with LOX IMVI; 22.3 µM (inactive) in the assay with MOLT-4; 55.8 µM (inactive) in the assay on Malme-3M; > 100 µM (inactive) in the assay on A498. The GI50 in the assay with SK-MEL-28 was > 100 µM (inactive); with MDA-MB-435, 38.3 µM (inactive); in the assay with HT-29 it was 39 µM (inactive); with NCI/ADR-RES, > 88.1 µM (inactive); in the assay on EKVX, > 100 µM (inactive); in the assay with HL-60 it was < 0.01 µM (active). Further, the GI50 in the assay with SNB-19 is > 100 µM (inactive); in the assay on MCF7, > 100 µM (inactive); in the assay on TK-10 it was > 54 µM (inactive); in the assay with UO-31, 62.5 µM (inactive); with T47D it was > 100 µM (inactive); in the assay on OVCAR-3, 0.0516 µM (active). Besides, the GI50 in the assay with NCI-H226 is > 100 µM (inactive); in the assay with MDA-MB-231, 35.4 µM (inactive).
With `O=[N+]([O-])c1cc(Cc2cc([N+](=O)[O-])c3cccnc3c2O)c(O)c2ncccc12`, the GI50 is 8.77 µM (inactive) in the assay with CAKI-1; 24.8 µM (inactive) in the assay with OVCAR-5; 3.91 µM (inactive) with LOX IMVI; 2.12 µM (inactive) with MOLT-4; 6.68 µM (inactive) in the assay with Malme-3M; 14.2 µM (inactive) with A498. The GI50 in the assay with SK-MEL-28 was 13.6 µM (inactive); in the assay on MDA-MB-435, 10.5 µM (inactive); with HT-29, 10.2 µM (inactive); in the assay on NCI/ADR-RES, 3.6 µM (inactive); in the assay with EKVX, 6.37 µM (inactive); in the assay on HL-60 it was 1.61 µM (inactive). For the same compound, the GI50 in the assay with SNB-19 was 6.78 µM (inactive); in the assay on MCF7, 4.4 µM (inactive); with TK-10 it was 12.4 µM (inactive); in the assay on UO-31, 4 µM (inactive); in the assay on T47D, 4.48 µM (inactive); with OVCAR-3 it was 2.38 µM (inactive). For the same compound, the GI50 is 16.6 µM (inactive) in the assay with NCI-H226 and 3.4 µM (inactive) in the assay with MDA-MB-231.
Regarding `CCn1c2ccc(C(=O)CCCN(C)C)cc2c2cc(C(=O)CCCN(C)C)ccc21`, the GI50 in the assay with CAKI-1 is 2.55 µM (inactive); with OVCAR-5, 1.79 µM (inactive); in the assay with LOX IMVI, 1.12 µM (active); in the assay with MOLT-4, 0.256 µM (active); with Malme-3M, 2.81 µM (inactive); in the assay on A498 it was 1.32 µM (inactive). Also, the GI50 with SK-MEL-28 is 5.66 µM (inactive); in the assay on MDA-MB-435 it was 1.27 µM (inactive); in the assay on HT-29, 0.509 µM (active); in the assay with NCI/ADR-RES, 4.93 µM (inactive); in the assay with EKVX it was 1.79 µM (inactive); in the assay on HL-60, 1.75 µM (inactive). The GI50 is 1.6 µM (inactive) with SNB-19; 0.659 µM (active) in the assay with MCF7; 1.98 µM (inactive) in the assay with TK-10; 3.48 µM (inactive) in the assay on UO-31; 10.2 µM (inactive) with T47D; 1.27 µM (inactive) with OVCAR-3. Also, the results for the GI50 with NCI-H226 and in the assay with MDA-MB-231 were 2.74 µM (inactive) and 0.851 µM (active), respectively.
Turning to `O=C1C2CC[C@@H]3C(=O)C(Cl)(Cl)[C@@H]3CCC2C1(Cl)Cl` (stereo not given in full), the GI50 was > 100 µM (inactive) in the assay with CAKI-1; > 100 µM (inactive) with OVCAR-5; 44 µM (inactive) with LOX IMVI; 26.2 µM (inactive) in the assay with MOLT-4; > 100 µM (inactive) in the assay on Malme-3M; > 100 µM (inactive) with A498. Besides, the GI50 was > 100 µM (inactive) in the assay with SK-MEL-28; > 100 µM (inactive) with MDA-MB-435; > 100 µM (inactive) in the assay on HT-29; > 100 µM (inactive) in the assay on NCI/ADR-RES; > 100 µM (inactive) in the assay with EKVX; 6.17 µM (inactive) in the assay with HL-60. In addition, the GI50 was > 100 µM (inactive) with SNB-19; 42.8 µM (inactive) in the assay on MCF7; > 100 µM (inactive) with TK-10; > 100 µM (inactive) in the assay with UO-31; > 100 µM (inactive) in the assay with T47D; 46.6 µM (inactive) in the assay with OVCAR-3. The GI50 in the assay on NCI-H226 and in the assay on MDA-MB-231 was > 100 µM (inactive) each time.
